# Tests used:
# [1] = molecular target: T1, NAD(P)H dehydrogenase [quinone] 1 (Homo sapiens, UniProt P15559); assay: Prodrug activation assessed as human NQO1-mediated compound reduction by measuring specific enzyme activity at 100 uM measured every 20 mins by HPLC based UV-Vis method
# [2] = Prodrug activation assessed as Escherichia coli NR-mediated compound reduction by measuring specific enzyme activity at 100 uM measured every 20 mins by HPLC based UV-vis method relative to CB1954
# [3] = molecular target: T1, NAD(P)H dehydrogenase [quinone] 1; assay: Prodrug activation assessed as human NQO1-mediated compound reduction by measuring specific enzyme activity at 100 uM measured every 20 mins by HPLC based UV-Vis method relative to CB1954
# [4] = Cytotoxicity against Chinese hamster F179 transformed cells assessed as reduction in cell viability after 3 days by SRB assay; format: toxicity, cell-based, Cricetulus griseus
# [5] = Cytotoxicity against Chinese hamster T116 cells expressing Escherichia coli Nitroreductase assessed as reduction in cell viability after 3 days by SRB assay; format: functional, Cricetulus griseus
# [6] = Prodrug activation assessed as Escherichia coli NR-mediated compound reduction by measuring specific enzyme activity at 100 uM measured every 20 mins by HPLC based UV-Vis method
# [7] = Cytotoxicity against Chinese hamster 186/6 cells expressing rat NQO1 assessed as reduction in cell viability after 3 days by SRB assay; format: functional, cell-based, Cricetulus griseus
# [8] = Cytotoxicity against Chinese hamster DT7 cells expressing human NQO1 assessed as reduction in cell viability after 3 days by SRB assay; format: functional, cell-based, Cricetulus griseus
# [9] = Drug metabolism assessed as Escherichia coli NR-mediated compound reduction by measuring specific enzyme activity at 100 uM measured every 20 mins by HPLC based UV-Vis method; format: ADME
# [10] = molecular target: T1, NAD(P)H dehydrogenase [quinone] 1; assay: Drug metabolism assessed as human NQO1-mediated compound reduction by measuring specific enzyme activity at 100 uM measured every 20 mins by HPLC based UV-Vis method; format: ADME
# T1 sequence (P15559 whole entry): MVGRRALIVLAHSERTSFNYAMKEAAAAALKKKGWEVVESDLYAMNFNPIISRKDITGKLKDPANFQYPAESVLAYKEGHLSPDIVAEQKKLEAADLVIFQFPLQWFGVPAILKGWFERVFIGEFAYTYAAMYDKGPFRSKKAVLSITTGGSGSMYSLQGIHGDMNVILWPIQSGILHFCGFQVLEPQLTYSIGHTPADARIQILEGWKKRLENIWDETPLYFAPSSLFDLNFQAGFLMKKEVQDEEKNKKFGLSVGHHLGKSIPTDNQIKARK
SMILES,Activity [1] [µmol/min/mg],fold change (FC) [2],fold change (FC) [3],IC50 [4] [µM],IC50 [5] [µM],Activity [6] [µmol/min/mg],IC50 [7] [µM],IC50 [8] [µM],Activity [9] [µmol/min/mg],Activity [10] [µmol/min/mg]
O=[N+]([O-])c1cc(C(F)(F)F)ccc1N1Cc2ccccc2CC1CCl (stereo unspecified),0.0177,< 0.001,2.855,36.6,39.1,< 0.01,34.4,31.2,–,–
O=[N+]([O-])c1ccc(N2Cc3ccccc3CC2CCl)c([N+](=O)[O-])c1 (stereo unspecified),0.0033,0.137,0.532,49,1.2,0.254,36.6,43.1,–,–
O=[N+]([O-])c1ccc(N2Cc3ccccc3CC2CCl)cc1 (stereo unspecified),< 0.0001,< 0.001,< 0.01,3.3,3.1,< 0.01,2.9,2.8,–,–
O=[N+]([O-])c1ccc(N2Cc3ccccc3CC2CCl)c(C(F)(F)F)c1 (stereo unspecified),0.027,0.089,4.355,37.8,3.1,0.166,22.6,27.5,–,–
NC(=O)c1cc(N2CC2)c([N+](=O)[O-])cc1[N+](=O)[O-] [TRETAZICAR],–,–,–,196,0.03,–,0.05,1.5,1.86,0.0062
O=[N+]([O-])c1ccc(N2Cc3ccccc3CC2CCl)cc1C(F)(F)F (stereo unspecified),0.012,0.057,1.936,7.3,2.9,0.106,5.8,5.9,–,–

# From ChEMBL document CHEMBL3872239, “Studies relating to the synthesis, enzymatic reduction and cytotoxicity of a series of nitroaromatic prodrugs” (Bioorg Med Chem Lett, 2016)
